Values of other authors in patent US6951873B1, “Methods for treating age-related behavioral disorders in companion animals” (priority 1999, dated 2005).

Tested on: aged-impaired dogs
Conditions: spatial memory model sensitive to age-dependent cognitive impairment

Q: For `C#CCN(C)[C@H](C)Cc1ccccc1.Cl` [selegiline chloride], which “Performance of aged-impaired dogs on this test” value is on record?
A: Its value is “improved”.
